Our source for the DC50 values is patent publication US12091411B2, “IRAK degraders and uses thereof” (Kymera Therapeutics, Inc., priority 2022, dated 2024).

Like-named read-outs stand apart in the source and are kept apart here.

This assay addresses T1, IRAK4 (Homo sapiens, UniProt Q9NWZ3).
T1 construct: Degradation of IRAK4 in OCI-LY10 was quantitatively measured using Meso Scale Discovery technology; endogenous in cells; host or cells: OCI-LY10
T1 sequence (Q9NWZ3 1-460): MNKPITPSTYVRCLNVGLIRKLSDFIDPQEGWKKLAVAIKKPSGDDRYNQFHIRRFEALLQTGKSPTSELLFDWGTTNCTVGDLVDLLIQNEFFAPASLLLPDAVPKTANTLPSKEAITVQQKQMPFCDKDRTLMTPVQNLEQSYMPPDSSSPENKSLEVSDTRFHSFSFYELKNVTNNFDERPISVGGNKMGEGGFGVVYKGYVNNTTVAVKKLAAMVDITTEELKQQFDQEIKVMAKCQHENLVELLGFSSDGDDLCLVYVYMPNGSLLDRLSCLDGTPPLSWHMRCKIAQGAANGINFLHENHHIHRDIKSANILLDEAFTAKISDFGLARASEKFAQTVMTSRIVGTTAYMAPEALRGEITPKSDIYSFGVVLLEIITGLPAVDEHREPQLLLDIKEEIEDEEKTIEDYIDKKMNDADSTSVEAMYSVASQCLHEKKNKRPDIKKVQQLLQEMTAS
As to the kind of experiment: IRAK4 MSD Degradation in OCI-LY10. It is filed as cell-based. Conditions: OCI-LY10 cells, MSD. On the procedure: Degradation of IRAK4 in OCI-LY10 was quantitatively measured using Meso Scale Discovery technology. […] Compounds were then added to the assay plates with a final top concentration of 1 to 10 μM in a 1:3 dilution series with total of 8 doses. The assay plates were then incubated for 4 to 24 hours at 37° C. under 5% CO2. […] To prepare MSD assay plates (Meso Scale Discovery Catalog number L15XA-3), the plates were coated with 2 μg/mL capture antibody (mouse Anti-IRAK4 antibody [2H9], ab119942) in PBS, at 40 μL/well. […] Cell lysates were then added to MSD assay plates and the plates were incubated at room temperature for 1 hour. The plates were then washed 3 times with 150 μL/well TBST buffer and 25 μL/well primary detection antibody (rabbit Anti-IRAK4 antibody [Y279], from Abcam. Catalog number ab32511, 1 μg/mL). The assay plates were then incubated at room temperature for 1 hour, washed 3 times with 150 μL/well TBST buffer and 25 μL/well secondary detection antibody, SULFO-TAG anti-rabbit antibody were added (anti-rabbit antibody from Meso Scale Discovery, Catalog number R32AB-1, 1 μg/mL). The assay plates were then incubated at room temperature for 1 hour, washed 3 times with 150 μL/well TBST buffer, and 150 μL/well MSD reading buffer (Meso Scale Discovery catalog number R92TC-2) was added. The plates were then analyzed by a MSD reader (Meso Scale Discovery, Model Quick Plex SQ 120). The data was then analyzed by software Prism 7.0 from GraphPad and the dose-depended IRAK4 degradation were fit using a three-parameter logistic equation to calculate DC50.
The letter codes for IRAK4 DC50 include: A (<0.01 μM); B (0.01 to <0.1 μM); C (0.1 to 0.2 μM); and D (>0.2 μM or not tested).

The mark [1] stands for this setting: 4 hrs incubation, read-out: IRAK4 degradation in OCI-LY10 at 4 hrs: DC50.
The mark [2] stands for this setting: 24 hrs incubation, read-out: IRAK4 degradation in OCI-LY10 at 24 hrs: DC50.

On to `Cn1c(=O)n(C2CCC(=O)NC2=O)c2cccc(C#CCN3C[C@H]4C[C@@H]3CN4C[C@H]3CC[C@H](n4cc(NC(=O)c5cnn6ccc(N7C[C@H]8C[C@@H]7CO8)nc56)c(C(F)F)n4)CC3)c21` (some centres unmarked) [I-45], for which the DC50 is, setting by setting: under setting [1], 10 to 100 nM; under setting [2], more than 200 nM.
The like results for `O=C1CCN(c2cncc3c(C#CCO[C@H]4CCN(C[C@H]5CC[C@H](n6cc(NC(=O)c7cnn8ccc(N9C[C@H]%10C[C@@H]9CO%10)nc78)c(C(F)F)n6)CC5)C[C@H]4F)cccc23)C(=O)N1` [I-46] were, in that order, less than 10 nM and more than 200 nM.
For `C[C@H]1CN(C[C@H]2CC[C@H](n3cc(NC(=O)c4cnn5ccc(N6C[C@H]7C[C@@H]6CO7)nc45)c(C(F)F)n3)CC2)CC[C@@H]1OCC#Cc1cccc2c1n(C)c(=O)n2C1CCC(=O)N(C)C1=O` (some centres unmarked) [I-47], in that order: more than 200 nM and more than 200 nM.
For `C[C@@H]1CN(C[C@H]2CC[C@H](n3cc(NC(=O)c4cnn5ccc(N6C[C@@H]7C[C@H]6CO7)nc45)c(C(F)F)n3)CC2)CC[C@H]1OCC#Cc1cccc2c1n(C)c(=O)n2C1CCC(=O)NC1=O` (some centres unmarked) [I-48], in that order: 10 to 100 nM and more than 200 nM.
Consider `C[C@@H]1CN(C[C@H]2CC[C@H](n3cc(NC(=O)c4cnn5ccc(N6C[C@H]7C[C@@H]6CO7)nc45)c(C(F)F)n3)CC2)CC[C@H]1OCC#Cc1ccc2c(N3CCC(=O)NC3=O)cncc2c1` [I-49], for which the DC50 under setting [1] lay in the range of 10 to 100 nM and the DC50 under setting [2] is more than 200 nM.
In the case of `Cn1c(=O)n(C2CCC(=O)NC2=O)c2cccc(C#CCN3C[C@@H]4C[C@H]3CN4C[C@H]3CC[C@H](n4cc(NC(=O)c5cnn6ccc(N7C[C@H]8C[C@@H]7CO8)nc56)c(C(F)F)n4)CC3)c21` (some centres unmarked) [I-50], the 50% degradation concentration (DC50) is 10 to 100 nM under setting [1] and more than 200 nM under setting [2].
For `COc1ccc2c(c1C#CCO[C@H]1CCN(C[C@H]3CC[C@H](n4cc(NC(=O)c5cnn6ccc(N7C[C@H]8C[C@@H]7CO8)nc56)c(C(F)F)n4)CC3)C[C@H]1F)n(C)c(=O)n2C1CCC(=O)NC1=O` (some centres unmarked) [I-51], in that order: 10 to 100 nM and more than 200 nM.
Regarding `O=C1CCN(c2cncc3c(C#CCO[C@@H]4CCN(C[C@H]5C[C@H](n6cc(NC(=O)c7cnn8ccc(N9C[C@H]%10C[C@@H]9CO%10)nc78)c(C(F)F)n6)C5)C[C@@H]4F)cccc23)C(=O)N1` [I-52], the DC50 runs as follows: under setting [1], less than 10 nM; under setting [2], more than 200 nM.
On to `C[C@H]1CN(C[C@H]2C[C@H](n3cc(NC(=O)c4cnn5ccc(N6C[C@H]7C[C@@H]6CO7)nc45)c(C(F)F)n3)C2)CC[C@@H]1OCC#Cc1cccc2c(N3CCC(=O)NC3=O)cncc12` [I-53], for which the 50% degradation concentration (DC50) under setting [1] is less than 10 nM and the DC50 under setting [2] is more than 200 nM.
The like results for `COc1ccc2c(c1C#CCO[C@@H]1CCN(C[C@H]3C[C@H](n4cc(NC(=O)c5cnn6ccc(N7C[C@H]8C[C@@H]7CO8)nc56)c(C(F)F)n4)C3)C[C@@H]1F)n(C)c(=O)n2C1CCC(=O)NC1=O` (some centres unmarked) [I-54] were, in that order, less than 10 nM and more than 200 nM.
Regarding `C[C@@H]1CN(C[C@H]2CC[C@H](n3cc(NC(=O)c4cnn5ccc(N6C[C@H]7C[C@@H]6CO7)nc45)c(C(F)F)n3)CC2)CC[C@H]1OCC#Cc1cccc2c(N3CCC(=O)NC3=O)cncc12` [I-55], the DC50 was 10 to 100 nM under setting [1] and more than 200 nM under setting [2].
The like results for `C[C@H]1CN(C[C@H]2CC[C@H](n3cc(NC(=O)c4cnn5ccc(N6C[C@H]7C[C@@H]6CO7)nc45)c(C(F)F)n3)CC2)CC[C@@H]1OCC#Cc1cccc2c(N3CCC(=O)NC3=O)cncc12` [I-56] were, in that order, less than 10 nM and more than 200 nM.
For `C[C@H]1CN(C[C@H]2CC[C@H](n3cc(NC(=O)c4cnn5ccc(N6C[C@H]7C[C@@H]6CO7)nc45)c(C(F)F)n3)CC2)CC[C@@H]1OCC#Cc1ccc2c(N3CCC(=O)NC3=O)cncc2c1` [I-57], in that order: 10 to 100 nM and more than 200 nM.
Turning to `COc1ccc2c(c1C#CCO[C@H]1CCN(C[C@H]3CC[C@H](n4cc(NC(=O)c5cnn6ccc(N7C[C@H]8C[C@@H]7CO8)nc56)c(C(F)F)n4)CC3)C[C@@H]1C)n(C)c(=O)n2C1CCC(=O)NC1=O` (some centres unmarked) [I-58], the 50% degradation concentration (DC50) runs as follows: under setting [1], less than 10 nM; under setting [2], more than 200 nM.
For `CCn1c(=O)n(C2CCC(=O)NC2=O)c2cccc(C#CCO[C@H]3CCN(C[C@H]4CC[C@H](n5cc(NC(=O)c6cnn7ccc(N8C[C@H]9C[C@@H]8CO9)nc67)c(C(F)F)n5)CC4)C[C@@H]3C)c21` (some centres unmarked) [I-59], in that order: less than 10 nM and more than 200 nM.
The like results for `CCn1c(=O)n(C2CCC(=O)NC2=O)c2cccc(C#CCN3CCN(C[C@H]4CC[C@H](n5cc(NC(=O)c6cnn7ccc(N8C[C@H]9C[C@@H]8CO9)nc67)c(C(F)F)n5)CC4)CC3)c21` (some centres unmarked) [I-60] were, in that order, less than 10 nM and more than 200 nM.
Consider `Cn1c(=O)n(C2CCC(=O)NC2=O)c2cccc(N3CCN(C4CCN(C[C@H]5CC[C@H](n6cc(NC(=O)c7cnn8ccc(N9C[C@H]%10C[C@@H]9CO%10)nc78)c(C(F)F)n6)CC5)CC4)CC3)c21` (some centres unmarked) [I-62], for which the 50% degradation concentration (DC50) runs as follows: under setting [1], less than 10 nM; under setting [2], more than 200 nM.
For `C[C@H]1CN(C[C@H]2CC[C@H](n3cc(NC(=O)c4cnn5ccc(N6C[C@H]7C[C@@H]6CO7)nc45)c(C(F)F)n3)CC2)CC[C@@H]1OCC#Cc1cccc2c1n(C1CC1)c(=O)n2C1CCC(=O)NC1=O` (some centres unmarked) [I-63], in that order: less than 10 nM and more than 200 nM.
The like results for `COc1ccc2c(c1C#CCO[C@@H]1CCN(C[C@H]3CC[C@H](n4cc(NC(=O)c5cnn6ccc(N7C[C@H]8C[C@@H]7CO8)nc56)c(C(F)F)n4)CC3)C[C@H]1C)n(C)c(=O)n2C1CCC(=O)NC1=O` (some centres unmarked) [I-64] were, in that order, less than 10 nM and more than 200 nM.
Consider `O=C1CCC(n2c(=O)n(C3CC3)c3c(C#CCOC4CCN(C[C@H]5CC[C@H](n6cc(NC(=O)c7cnn8ccc(N9C[C@H]%10C[C@@H]9CO%10)nc78)c(C(F)F)n6)CC5)CC4)cccc32)C(=O)N1` (some centres unmarked) [I-65], for which the DC50 is less than 10 nM under setting [1] and more than 200 nM under setting [2].
`Cn1c(=O)n(C2CCC(=O)NC2=O)c2cccc(C3CC(CN4CCN(C[C@H]5CC[C@H](n6cc(NC(=O)c7cnn8ccc(N9C[C@H]%10C[C@@H]9CO%10)nc78)c(C(F)F)n6)CC5)CC4)C3)c21` (some centres unmarked) [I-66]: the 50% degradation concentration (DC50) by setting is: under setting [1], less than 10 nM; under setting [2], more than 200 nM.
In the case of `Cn1c(=O)n(C2CCC(=O)NC2=O)c2cccc(C3CC(OC4CCN(C[C@H]5CC[C@H](n6cc(NC(=O)c7cnn8ccc(N9C[C@H]%10C[C@@H]9CO%10)nc78)c(C(F)F)n6)CC5)CC4)C3)c21` (some centres unmarked) [I-68], the DC50 under setting [1] is less than 10 nM and the DC50 under setting [2] was more than 200 nM.
The like results for `Cn1c(=O)n(C2CCC(=O)NC2=O)c2cccc(N3CCC(N4CCN(C[C@H]5CC[C@H](n6cc(NC(=O)c7cnn8ccc(N9C[C@H]%10C[C@@H]9CO%10)nc78)c(C(F)F)n6)CC5)CC4)CC3)c21` (some centres unmarked) [I-69] were, in that order, less than 10 nM and more than 200 nM.
For `CCn1c(=O)n(C2CCC(=O)NC2=O)c2cccc(C#CCOC3CCN(C[C@H]4CC[C@H](n5cc(NC(=O)c6cnn7ccc(N8C[C@H]9C[C@@H]8CO9)nc67)c(C(F)F)n5)CC4)CC3)c21` (some centres unmarked) [I-70], in that order: less than 10 nM and more than 200 nM.
For the molecule `O=C1CCN(c2cncc3c(C4CCN(C5CCN(C[C@H]6CC[C@H](n7cc(NC(=O)c8cnn9ccc(N%10C[C@H]%11C[C@@H]%10CO%11)nc89)c(C(F)F)n7)CC6)CC5)CC4)cccc23)C(=O)N1` [I-74], the 50% degradation concentration (DC50) is less than 10 nM under setting [1] and more than 200 nM under setting [2].
Consider `O=C1CCN(c2cncc3cc(C4CCN(C5CCN(C[C@H]6CC[C@H](n7cc(NC(=O)c8cnn9ccc(N%10C[C@H]%11C[C@@H]%10CO%11)nc89)c(C(F)F)n7)CC6)CC5)CC4)ccc23)C(=O)N1` [I-75], for which the DC50 runs as follows: under setting [1], less than 10 nM; under setting [2], more than 200 nM.
Regarding `O=C1CCN(c2cncc3c(N4CCN(C5CCN(C[C@H]6CC[C@H](n7cc(NC(=O)c8cnn9ccc(N%10C[C@H]%11C[C@@H]%10CO%11)nc89)c(C(F)F)n7)CC6)CC5)CC4)cccc23)C(=O)N1` [I-76], the DC50 by setting is: under setting [1], less than 10 nM; under setting [2], more than 200 nM.
For `O=C1CCN(c2cncc3cc(N4CCN(C5CCN(C[C@H]6CC[C@H](n7cc(NC(=O)c8cnn9ccc(N%10C[C@H]%11C[C@@H]%10CO%11)nc89)c(C(F)F)n7)CC6)CC5)CC4)ccc23)C(=O)N1` [I-77], in that order: less than 10 nM and more than 200 nM.
